What follows are compounds tested against T1, MAGE-A11:PCF11 interaction (GST-MAGE-A11 and FAM-PCF11_4) (Homo sapiens, UniProt P43364) (assay: TR-FRET primary / single point screen at 15 µM). Conditions: single point TR-FRET screening of 797 quinoline compounds against MAGE-A11:PCF11.
T1 construct: GST-MAGE-A11 MHD (human MAGE-A11 MHD amino acid 218-429); made in house; host or cells: E. coli BL21(DE3)
T1 sequence (P43364 218-429): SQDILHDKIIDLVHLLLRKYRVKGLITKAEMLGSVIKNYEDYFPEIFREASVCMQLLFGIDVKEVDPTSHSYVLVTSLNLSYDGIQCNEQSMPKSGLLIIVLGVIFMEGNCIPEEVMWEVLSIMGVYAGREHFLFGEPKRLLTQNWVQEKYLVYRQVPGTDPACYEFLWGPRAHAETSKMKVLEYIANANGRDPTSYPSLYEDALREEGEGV
Assay type: binding
Protocol: The TR-FRET assay buffer with a formula of 50 mM Tris pH 7.5, 20 mM MgCl2, 0.1 mg/ml BSA and 1 mM DTT was freshly prepared before each experiment. All TR-FRET assays were performed in black 384-well plates with 20 µl/well assay volume in the TR-FRET assay buffer at room temperature (~25 °C). All peptides or compounds were solubilized in DMSO. To test the competitive activity of peptides or compounds against the interaction between GST-MAGE-A11 MHD and FAM-PCF11_4 peptide, 10 µl/well peptide or compound at specified concentration was dispensed into a black 384-well low volume plate, followed by 5 µl/well FAM-PCF11_4 (800 nM), 5 µl/well Tb-anti-GST (20 nM), and GST-MAGE-A11 MHD (20 nM). The assay components in each well was then mixed by shaking the plate on an IKA MTS 2/4 digital microtiter plate shaker (IKA Works; Wilmington, NC, USA) for 1 min. The plate was further centrifuged in an Eppendorf 5810 centrifuge with an A-4-62 swing-bucket rotor (Eppendorf AG, Hamburg, Germany) at 201 g for 30 s. The plate was then incubated for 90 min with a lid to avoid light exposure to the assay components. After incubation, the fluorescent emission signals at 520 nm and 490 nm channels of individual wells were measured with a PHERAstar FS plate reader (BMG Labtech; Durham, NC, USA) by using a 340 nm excitation filter, 100 µs delay time, and 200 µs integration time. The TR-FRET fluorescence emission ratio (TR-FRET signal) for each well was presented as 10,000 × 520 nm/490 nm, which was used directly for curve fitting, or further converted to %Inhibition based on the respective positive and negative controls. The graphic software GraphPad Prism 4.81 (GraphPad Software; La Jolla, CA, USA) was used to generate curves and derive IC50 values of tested peptides or compounds, if applicable. TR-FRET screen for identifying MAGE-A11 small molecule inhibitors was performed as follows. The primary one-concentration screening and subsequent 10 or 20-concentration dose-response tests were accomplished with an automated High Throughput Screening system (HighRes Biosolutions, Beverly, MA)[30]. In the primary screening, 15 µl/well FAM-PCF11_4 (267 nM) was first dispensed with a Multidrop Combi Reagent Dispenser (Thermo Fisher Scientific, Waltham, MA) to black 384-well low-volume assay plates. The plates were spun down with a Velocity11 VSpin microplate centrifuge (Agilent Technologies, Santa Clara, CA). In total, 30 nl/well of 10 mM compound/DMSO solutions, or DMSO alone, were transferred from compound plates (the St. Jude FDA drug and bioactive library, Drug-like library and Lead-like library) or a control plate to the assay plates with a Pin Tool (V&P Scientific, San Diego, CA). The compounds were arrayed in columns 3–12 and columns 15–24 of compound plates. The controls were arrayed in columns 1, 2, 13, and 14 of a compound plate. In all, 5 µl/well Tb-anti-GST (20 nM) and GST-MAGE-A11 (20 nM) or 5 µl/well Tb-anti-GST (20 nM) alone was then dispensed to selected wells with a Multidrop Combi Reagent Dispenser. The final assay volume was 20 µl/well. […] The final tested compound concentration was 15 µM. The final FAM-PCF11_4 concentration was 200 nM and the final Tb-anti-GST concentration was 5 nM. The final GST-MAGE-A11 concentration was 5 nM except for those selected positive control wells in which GST-MAGE-A11 was not presented. The plates were then shaken with a big bear shaker (Big Bear Automation, Santa Clara, California) and spun down with the Velocity11 VSpin microplate centrifuge for 20 s. The plates were then incubated at room temperature in a Liconic incubator (Liconic US, Woburn, MA) for 90 min. The TR-FRET signals for individual wells were measured with a PHERAstar FS plate reader. The %Inhibition of each tested inhibitor was calculated by using Eq. 1. Those inhibitors with %Inhibition >30% in the primary screening were selected for further dose-response test, along with additional newly synthesized compounds. […]

Row | Structure (SMILES) | percent inhibition (TR-FRET)
1 | C=CCOCC(O)CN1CCN(c2cc(C(F)(F)F)nc3ccccc23)CC1 (stereo not shown) [SJ000228017] | -2.128
2 | Clc1ccc2c(NCCCCN(Cc3ccccc3)Cc3ccccc3)ccnc2c1 [SJ000522718] | 17.3464
3 | CCOC(=O)c1cnc2c(Cl)c(Cl)ccc2c1NCCN(C)C [SJ000027266] | 2.575
4 | Cc1cccc(N2CCN(c3c(S(=O)(=O)c4ccccc4)cnc4ccccc34)CC2)c1C [SJ000117081] | -13.1252
5 | CCOc1ccc2ncc(S(=O)(=O)c3ccccc3)c(N3CCN(Cc4ccccc4)CC3)c2c1 [SJ000247249] | -15.9076
6 | COc1ccc2nc3cc(Cl)ccc3c(NCCCNCC3CCOC3)c2c1 (stereo not shown) [SJ000521003] | -442.307
7 | COc1ccc2nc3cc(Cl)ccc3c(NCCCNCc3cc(C(F)(F)F)ccc3OC)c2c1 [SJ000521002] | -290.163
8 | CCCN(CCCNc1c2ccc(Cl)cc2nc2ccc(OC)cc12)Cc1ccc(Br)o1 [SJ000520929] | -137.318
9 | COc1ccc2nc3cc(Cl)ccc3c(NCCCNCc3cccn3C)c2c1 [SJ000520985] | -402.468
10 | COc1ccc2nc3cc(Cl)ccc3c(NCCCNCc3cc(F)ccc3F)c2c1 [SJ000361091] | -327.201
11 | CCCCCN(CCC)CCCNc1c2ccc(Cl)cc2nc2ccc(OC)cc12 [SJ000520941] | -210.345
12 | O=S(=O)(c1ccccc1)c1cnc2ccc(F)cc2c1N1CCN(c2ccccc2F)CC1 [SJ000315166] | -99.0552
13 | O=[N+]([O-])c1ccc(CN(CCCCNc2ccnc3cc(Cl)ccc23)Cc2ccccc2)cc1 [SJ000361202] | 15.2459
14 | Clc1ccc2c(NCCCCN(Cc3ccccc3)Cc3ccccn3)ccnc2c1 [SJ000312690] | 9.5313
15 | CCOC(=O)c1cnc2c(ccc3ccccc32)c1NCCN(C)C [SJ000019487] | 6.418
16 | CCc1ccc(S(=O)(=O)c2cnc3ccccc3c2N2CCN(c3ccccc3OC)CC2)cc1 [SJ000117069] | -47.4423
17 | CCOc1ccc2ncc(C(=O)c3ccc(OC)cc3)c(N3CCN(C)CC3)c2c1 [SJ000247277] | -18.955
18 | Cc1ccc(F)cc1CN(CCCCNc1ccnc2cc(Cl)ccc12)Cc1ccccc1 [SJ000520449] | 42.3236
19 | CCCN(CCCNc1c2ccc(Cl)cc2nc2ccc(OC)cc12)Cc1nccn1C [SJ000522973] | -159.863
20 | CCCN(CCCNc1c2ccc(Cl)cc2nc2ccc(OC)cc12)Cc1ccsc1 [SJ000520922] | -258.026
21 | CCCN(CCCCNc1ccnc2cc(Cl)ccc12)CCCSC [SJ000311197] | 3.903
22 | CCCN(CCCNc1c2ccc(Cl)cc2nc2ccc(OC)cc12)Cc1ccc([N+](=O)[O-])o1 [SJ000523022] | -329.654
23 | CCCN(CCCNc1c2ccc(Cl)cc2nc2ccc(OC)cc12)Cc1ccco1 [SJ000520935] | -202.643
24 | Cc1ccsc1CN(CCCCNc1ccnc2cc(Cl)ccc12)Cc1ccccc1 [SJ000361191] | 23.4378
25 | Cc1cc(N2CCN(CC(O)CO)CC2)c2ccccc2n1 (stereo not shown) [SJ000227653] | -4.954

Same assay, conditions: single point TR-FRET screening of quinoline compounds against MAGE-A11:PCF11

Row | Structure (SMILES) | percent inhibition (TR-FRET)
26 | CCOc1ccc2ncc(S(=O)(=O)c3ccc(Cl)cc3)c(N3CCN(c4ccccc4)CC3)c2c1 [SJ000117054] | -446.911

Same assay, conditions: single point TR-FRET screening of quinoline compounds against MAGE-A11:PCF11; 15 µM

Row | Structure (SMILES) | percent inhibition (TR-FRET)
27 | CCCN(CCCNc1ccnc2cc(Cl)ccc12)Cc1ccc(C)o1 [SJ000357437] | 20.147
28 | CCCN(CCCNc1ccnc2cc(C(F)(F)F)ccc12)Cc1ccc(CC)cc1 [SJ000521009] | 31.7696
29 | CCCN(CCCNc1ccnc2cc(Cl)ccc12)Cc1ccoc1 [SJ000357442] | 6.2139
30 | CCCN(CCCNc1c2ccc(Cl)cc2nc2ccc(OC)cc12)Cc1cccc(C(F)(F)F)c1 [SJ000522986] | 16.1546
31 | CCCN(CCCNc1ccnc2cc(C(F)(F)F)ccc12)Cc1cc(F)ccc1OC [SJ000520475] | 15.746
32 | CCOC(=O)c1cnc2c(C)cccc2c1NCCCN1CCOCC1 [SJ000279636] | 3.353
33 | FC(F)(F)c1ccc2c(NCCCNCc3ccco3)ccnc2c1 [SJ000361113] | 18.0466
34 | CCOC(=O)c1cnc2ccc(OCC)cc2c1NCCCN1CCOCC1 [SJ000279525] | 5.532
35 | CCCN(CCCNc1ccnc2cc(Cl)ccc12)Cc1ccc(-c2ccccc2[N+](=O)[O-])o1 [SJ000523044] | 9.266
36 | CCCN(CCCNc1ccnc2cc(C(F)(F)F)ccc12)Cc1scnc1C [SJ000575179] | 5.164
37 | CCCN(CCCNc1ccnc2cc(Cl)ccc12)Cc1ccccn1 [SJ000522743] | 1.3128
38 | Clc1ccc2c(NCCCN(Cc3ccccc3)Cc3ccc4ccccc4c3)ccnc2c1 [SJ000361182] | 22.052
39 | Clc1ccc2c(NCCCNCc3ccncc3)ccnc2c1 [SJ000523049] | 6.077
40 | CCCN(CCCNc1c2ccc(Cl)cc2nc2ccc(OC)cc12)Cc1c(F)c(F)c(F)c(F)c1F [SJ000522734] | -2.258
41 | CCCN(CCCNc1c2ccc(Cl)cc2nc2ccc(OC)cc12)Cc1cc(F)ccc1OC [SJ000520931] | 1.847
42 | CCOC(=O)c1cnc2ccc(F)cc2c1NCCCN1CCOCC1 [SJ000279864] | -0.3915
43 | CCCCCN(CCC)CCCNc1ccnc2cc(Cl)ccc12 [SJ000522754] | 16.2885
44 | Cn1cccc1CNCCCNc1ccnc2cc(C(F)(F)F)ccc12 [SJ000521041] | -6.879
45 | CCCN(CCCNc1c2ccc(Cl)cc2nc2ccc(OC)cc12)Cc1nc2ccccc2s1 [SJ000522969] | -68.773
46 | Fc1ccc(CN(CCCNc2ccnc3cc(Cl)ccc23)Cc2ccccc2)cc1 [SJ000522721] | 18.0772
47 | Cn1cc(CNCCCNc2ccnc3cc(Cl)ccc23)c2ccccc21 [SJ000521020] | 18.4667
48 | CCCN(CCCNc1ccnc2cc(C(F)(F)F)ccc12)Cc1nc2ccccc2s1 [SJ000520484] | 7.404
49 | CCCN(CCCNc1ccnc2cc(Cl)ccc12)Cc1ccc(OC)c(F)c1 [SJ000522994] | 15.1623
50 | CCCN(CCCNc1ccnc2cc(Cl)ccc12)Cc1ccccc1F [SJ000522757] | 21.9858
51 | O=[N+]([O-])c1ccc(CNCCCNc2ccnc3cc(Cl)ccc23)s1 [SJ000520912] | 6.284
52 | COc1ccc(CN(CCCNc2ccnc3cc(Cl)ccc23)Cc2ccccc2)cc1OC [SJ000522742] | -0.5383

— PMC7529893, “Structural basis for substrate recognition and chemical inhibition of oncogenic MAGE ubiquitin ligases” (Nature Communications, 2020)
